This is an account of results in US20130296311A1, “INHIBITORS OF HCV NS5A” (PRESIDIO PHARMACEUTICALS, INC., priority 2010, published 2013).

pEC50: −log10 of the molar value. Where only a bound is given, the exact number is not on record here.

One assay has as its system HCV 1b_Huh-Luc/Neo-ET cell line persistently expressing a bicistronic genotype 1b replicon in Huh 7 cells. In words: HCV replicon assay (luciferase readout, 72 h). The class given is cell-based, HCV genotype 1b. The note with it: Hepatitis C virus, Huh-7, 72 h, read-out: Inhibition of HCV. A digest of the protocol:
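Huh 7 cells carrying a bicistronic genotype 1b luciferase/neo replicon received compound in triplicate the day after plating. After 72 h, replicon levels were read as Bright-Glo luciferase activity, expressed as % of control; EC50 was fitted with a four-parameter logistic and determined several times.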
For orientation: A replicon is a self-replicating genome or part of one, used to study replication in cells.
Take `COC(=O)N[C@@H](C(=O)N1CCC[C@H]1c1nc2ccc(C#Cc3ccc4nc([C@@H]5CCCN5C(=O)[C@H](NC(=O)OC)C(C)C)[nH]c4c3)cc2[nH]1)C(C)C` [Compound 853]: the pEC50 is > 9.00.

The assay is the same for the next values; noted with them: Hepatitis C virus, Huh-7, 72 h, read-out: Inhibition of HCV genotype 1b.
Consider `COC(=O)N[C@H](C(=O)N1CCC[C@H]1c1nc2ccc(C#Cc3ccc(-c4cnc([C@@H]5CCCN5C(=O)[C@@H](C(C)C)N(C)C)[nH]4)cc3)cc2[nH]1)C(C)C` [Compound 865], for which the pEC50 is > 9.00.
Regarding `O=S(=O)(Cc1ccccc1)N1CCC[C@H]1c1ncc(-c2ccc(C#Cc3ccc4nc([C@@H]5CCCN5S(=O)(=O)Cc5ccccc5)[nH]c4c3)cc2)[nH]1` [Compound 1042], the pEC50 is < 6.00.
The same measure, in the same setting: as for `COC(=O)N[C@H](C(=O)N1CCC[C@H]1c1nc2ccc3cc(C#Cc4ccc(-c5cnc([C@@H]6CCCN6C(=O)[C@@H](NC(=O)OC)C6CCOCC6)[nH]5)cc4)ccc3c2[nH]1)C(C)C` [Compound 1092], the figure is > 9.00.
Same read-out and setting: the figure for `COC(=O)N[C@@H](C(=O)N1CCC[C@H]1c1ncc(-c2ccc(C#Cc3ccc(-c4cnc([C@@H]5CCCN5C(=O)OCc5ccccc5)[nH]4)cc3)cc2)[nH]1)c1ccccc1` [Compound 200] is > 9.00; for `COC(=O)N[C@@H](C(=O)N1CCC[C@H]1c1ncc(-c2ccc(C#Cc3ccc(-c4cnc([C@@H]5CCCN5C(=O)c5nccn5C)[nH]4)cc3)cc2)[nH]1)c1ccccc1` [Compound 176] it is > 9.00; for `COC(=O)N[C@H](C(=O)N1CCC[C@H]1c1nc2ccc(C#Cc3ccc(-c4cnc([C@@H]5CCCN5C(=O)[C@H](NC(=O)OC)c5ccccc5)[nH]4)cc3)cc2[nH]1)C(C)C` [Compound 1022] it is > 9.00.
The same measure, in the same setting: as for `COC(=O)N[C@@H](C(=O)N1CCC[C@H]1c1ncc(-c2ccc(C#Cc3ccc(-c4cnc([C@@H]5CCCN5C(=O)[C@@H]5CCCO5)[nH]4)cc3)cc2)[nH]1)c1ccccc1` [Compound 186], the figure is > 9.00; as for `C[C@H](NC(=O)[C@H](NC(=O)OC(C)(C)C)c1ccccc1)c1ncc(-c2ccc(C#Cc3ccc(-c4cnc([C@@H]5CCCN5C(=O)[C@H](NC(=O)OC(C)(C)C)c5ccccc5)[nH]4)cc3)cc2)[nH]1` [Compound 280], > 9.00; as for `CN(C)[C@@H](C(=O)N1CCC[C@H]1c1ncc(-c2ccc(C#Cc3ccc(-c4cnc([C@@H]5CCCN5C(=O)[C@H](NS(C)(=O)=O)c5ccccc5)[nH]4)cc3)cc2)[nH]1)c1ccccc1` [Compound 228], > 9.00.
As for `C[C@@H](NC(=O)[C@@H]1CCCN1C(=O)[C@H](NC(=O)OC(C)(C)C)c1ccccc1)c1ccc(C#Cc2cnc([C@@H]3CCCN3C(=O)[C@H](NC(=O)OC(C)(C)C)c3ccccc3)[nH]2)cc1` [Compound 129], the pEC50 was 6.00 to 8.00.
With `O=C(N[C@@H](C(=O)N1CCC[C@H]1c1cc(-c2ccc(C#Cc3ccc(-c4cnc([C@@H]5CCCN5C(=O)[C@H](NC(=O)C5CC5)c5ccccc5)[nH]4)cc3)cc2)n[nH]1)c1ccccc1)C1CC1` [Compound 212], the pEC50 is > 9.00.
Still for that read-out and setting: the figure for `COC(=O)N[C@@H](C(=O)N1CCC[C@H]1c1ncc(-c2ccc(C#Cc3ccc(-c4cnc([C@@H]5CCCN5C(=O)[C@@H](c5ccccc5)N5CCCCC5)[nH]4)cc3)cc2)[nH]1)c1ccccc1` [Compound 188] is > 9.00; for `CC(C)(C)OC(=O)N[C@@H](C(=O)N1CCC[C@H]1C(=O)NCc1ccc(C#Cc2ccc(-c3cnc([C@@H]4CCCN4C(=O)[C@H](NC(=O)OC(C)(C)C)c4ccccc4)[nH]3)cc2)cc1)c1ccccc1` [Compound 189] it is > 9.00; for `COC(=O)N[C@@H](C(=O)N1CCC[C@H]1c1ncc(-c2ccc(C#Cc3ccc(-c4cnc([C@@H]5CCCN5C(=O)[C@H](NC(=O)N5CCN(C)CC5)c5ccccc5)[nH]4)cc3)cc2)[nH]1)c1ccccc1` [Compound 240] it is > 9.00.
Regarding `COC(=O)N[C@@H](C(=O)N1CCC[C@H]1c1ncc(C#Cc2ccc(-c3ccc(-c4cnc([C@@H]5CCCN5C(=O)[C@@H](c5ccccc5)N5CCOCC5)[nH]4)cc3)cc2)[nH]1)c1ccccc1` [Compound 758], the pEC50 is > 9.00.
Turning to `CC(C)[C@H](NC(=O)[C@H](NC(=O)OC(C)(C)C)c1ccccc1)c1ncc(-c2ccc(C#Cc3ccc(-c4cnc([C@@H]5CCCN5C(=O)[C@H](NC(=O)OC(C)(C)C)c5ccccc5)[nH]4)cc3)cc2)[nH]1` [Compound 281], the pEC50 is 8.00 to 9.00.
Same read-out and setting: the figure for `COC(=O)N[C@H](C(=O)N1CCC[C@H]1c1nc2ccc3cc(C#Cc4ccc(-c5cnc([C@@H]6CCCN6C(=O)[C@H](NC(=O)OC)c6ccccc6)[nH]5)cc4)ccc3c2[nH]1)C(C)C` [Compound 1093] is > 9.00; for `COC(=O)N[C@@H](C(=O)N1CCC[C@H]1c1ncc(-c2ccc(C#Cc3ccc(-c4cnc([C@@H]5CCCN5C(=O)[C@H](NC(=O)N5CCC(O)CC5)c5ccccc5)[nH]4)cc3)cc2)[nH]1)c1ccccc1` [Compound 241] it is > 9.00; for `COC(=O)N[C@@H](C(=O)N1CCC[C@H]1c1ncc(-c2ccc(C#Cc3ccc(-c4cnc([C@@H]5CCCN5C(=O)[C@H](NC(=O)N5CCCCC5)c5ccccc5)[nH]4)cc3)cc2)[nH]1)c1ccccc1` [Compound 242] it is > 9.00.
The same measure, in the same setting: the figure for `COC(=O)N[C@H](C(=O)N1CCC[C@H]1c1ncc(-c2ccc(C#Cc3ccc4c(ccc5nc([C@@H]6CCCN6C(=O)[C@@H](NC(=O)OC)C(C)C)[nH]c54)c3)cc2)[nH]1)C(C)C` [Compound 1095] is > 9.00; for `C[C@H](NC(=O)[C@@H]1CCCN1C(=O)[C@H](NC(=O)C1CC1)c1ccccc1)c1ccc(C#Cc2cnc([C@@H]3CCCN3C(=O)[C@H](NC(=O)C3CC3)c3ccccc3)[nH]2)cc1` [Compound 132] it is 6.00 to 8.00.
Take `O=C([C@H](O)c1ccccc1)N1CCC[C@H]1c1ncc(C#Cc2ccc(-c3cnc([C@@H]4CCCN4C(=O)[C@H](O)c4ccccc4)[nH]3)cc2)[nH]1` [Compound 112]: the pEC50 is > 9.00.
On the same count and under the same terms, as for `COC(=O)N[C@@H](C)C(=O)N1CCC[C@H]1c1ncc(-c2ccc(C#Cc3ccc(-c4cnc([C@@H]5CCCN5C(=O)[C@H](NC(=O)OC)c5ccccc5)[nH]4)cc3)cc2)[nH]1` [Compound 1004], the figure is > 9.00.
Same read-out and setting: the figure for `COC(=O)N[C@H](C(=O)N1CCC[C@H]1c1ncc(C#Cc2ccc(-c3ccc4nc([C@@H]5CCCN5C(=O)[C@@H](NC(=O)OC)C(C)C)[nH]c4c3)cc2)[nH]1)C(C)C` [Compound 1084] is > 9.00.
Same read-out and setting: as for `COC(=O)N[C@@H](C(=O)N1CCC[C@H]1c1ncc(-c2ccc(C#Cc3ccc(-c4cnc([C@@H]5CCCN5C(=O)[C@@H]5CCCN5C)[nH]4)cc3)cc2)[nH]1)c1ccccc1` [Compound 202], the figure is > 9.00; as for `COC(=O)N[C@@H](C(=O)N1CCC[C@H]1c1ncc(-c2ccc(C#Cc3ccc(-c4cnc([C@@H]5CCCN5C(=O)[C@H](NC(=O)[C@@H]5CCCN5)c5ccccc5)[nH]4)cc3)cc2)[nH]1)c1ccccc1` [Compound 206], > 9.00.
On to `O=C(N[C@@H](C(=O)N1CCC[C@H]1c1ncc(C#Cc2ccc(C#Cc3cnc([C@@H]4CCCN4C(=O)[C@H](NC(=O)N4CCOCC4)c4ccccc4)[nH]3)cc2)[nH]1)c1ccccc1)N1CCOCC1` [Compound 309], for which the pEC50 was > 9.00.
As to `CC(C)(C)OC(=O)N1CCCC1c1ncc(-c2ccc(C#Cc3ccc4nc([C@@H]5CCCN5C(=O)OC(C)(C)C)[nH]c4c3)cc2)[nH]1` (stereo partly shown) [Compound 1034], the pEC50 is 8.00 to 9.00.
For `COC(=O)N[C@@H](C(=O)N1CCC[C@H]1c1ncc(C#Cc2ccc(-c3cnc([C@@H]4CCCN4C(=O)[C@@H](c4ccccc4)N(C)C)[nH]3)cc2)[nH]1)c1ccccc1` [Compound 123], the pEC50 was > 9.00.
For `O=C([C@@H](c1ccccc1)N1CCCCC1)N1CCC[C@H]1c1ncc(-c2ccc(C#Cc3ccc(-c4cnc([C@@H]5CCCN5C(=O)[C@@H](c5ccccc5)N5CCCCC5)[nH]4)cc3)cc2)[nH]1` [Compound 205], the pEC50 is > 9.00.
Still for that read-out and setting: as for `COC(=O)N[C@H](C(=O)N1CCC[C@H]1c1ncc(-c2ccc(C#Cc3ccc4nc([C@@H]5CCCN5)[nH]c4c3)cc2)[nH]1)C(C)C` [Compound 1056], the figure is 6.00 to 8.00; as for `COC(=O)N[C@@H](C(=O)N1CCC[C@H]1c1ncc(-c2ccc(C#Cc3ccc(-c4cnc([C@@H]5CCCN5C(=O)[C@H](C)c5ccccc5)[nH]4)cc3)cc2)[nH]1)c1ccccc1` [Compound 256], > 9.00; as for `COC(=O)N[C@H](C(=O)N1CCC[C@H]1c1ncc(-c2ccc(C#Cc3ccc4nc([C@@H]5CCCN5C(=O)[C@H](NC(=O)OC)c5ccccc5)[nH]c4c3)cc2)[nH]1)C(C)C` [Compound 1023], > 9.00.

Still in this assay, the particulars now being: Hepatitis C virus, Huh-7, read-out: Inhibition of HCV genotype 1b.
As for `COC(=O)N[C@H](C(=O)N1CCC[C@H]1c1ncc(-c2ccc(C#Cc3ccc(-c4cnc([C@@H]5CCCN5C(=O)[C@H](NC(=O)OC)c5cccs5)[nH]4)cc3)cc2)[nH]1)[C@@H](C)OC` [Compound 1213], the pEC50 is > 9.00.
Same read-out and setting: as for `COC(=O)N[C@H](C(=O)N1CCC[C@H]1CNC(=O)c1ccc(C#Cc2ccc3nc([C@@H]4CCCN4C(=O)[C@@H](NC(=O)OC)C(C)C)[nH]c3c2)cc1)C(C)C` [Compound 1238], the figure is > 9.00; as for `COC(=O)N[C@H](C(=O)N1CCN(C(=O)OC)C[C@H]1c1ncc(-c2ccc(C#Cc3ccc(-c4cnc([C@@H]5CCCN5C(=O)[C@H](NC(=O)OC5CCOCC5)c5ccccc5)[nH]4)cc3)cc2)[nH]1)C(C)C` [Compound 1207], > 9.00; as for `COC(=O)N[C@H](C(=O)N1CCN(C(=O)OC)C[C@H]1c1ncc(-c2ccc(C#Cc3ccc4nc([C@@H]5CCCN5C(=O)[C@@H](NC(=O)OC)C(C)C)[nH]c4c3)cc2)[nH]1)C(C)C` [Compound 1228], > 9.00.
For `CC[C@H](NC(=O)OC)C(=O)N1CCC[C@H]1c1ncc(-c2ccc(C#Cc3ccc4nc([C@@H]5CCCN5C(=O)[C@@H](NC(=O)OC)[C@@H](C)OC)[nH]c4c3)cc2)[nH]1` [Compound 1247], the pEC50 is > 9.00.
The same measure, in the same setting: the figure for `COC(=O)N[C@H](C(=O)N1CCC[C@H]1c1ncc(-c2ccc3cc(C#Cc4[nH]c([C@@H]5CCCN5C(=O)[C@@H](NC(=O)OC)[C@@H](C)OC)nc4C(F)(F)F)ccc3c2)[nH]1)C(C)C` [Compound 1258] is > 9.00.
